Reference: paper PMC10033663, “Acute pharmacological profile of 2C-B-Fly-NBOMe in male Wistar rats—pharmacokinetics, effects on behaviour and thermoregulation” (Frontiers in Pharmacology, 2023)
Entries after “also recorded” stand apart in the source; their conditions may differ. Like-named read-outs stand apart in the source and are kept apart here.

Columns and labels:
[1] = test system: male Wistar rats; assay: Thermoregulation (rectal temperature); format: in vivo; conditions: 5 mg/kg s. c.
Experimental: For the assessment of rectal temperature changes, rats were housed individually or in groups of five per cage. They were treated with 2C-B-Fly-NBOMe (5 mg/kg) or ctrl solution s. c. at 9:00 h. During the measurements, each rat was briefly immobilized in a plexiglass tube and then returned to its home cage. In total, 14 measurements were performed: […] for setting the baseline temperature, and then 4 subsequent 30 min measurements (09:30–11:00 h) and 6 hourly measurements (12:00–17:00 h).
Data from thermoregulatory experiments were analysed using 2 × 2 × 14 mixed factorial design with drug treatment (2C-B-Fly-NBOMe at 5 mg/kg or ctrl) and home cage conditions (individually and group-housed animals) as between-subjects factors and time (14 measurements) as a within-subjects factor. The baseline temperatures of animals were compared in the same manner.

[2] = test system: male Wistar rats; assay: Open field test (OFT); format: in vivo
Experimental: OFT was performed in a black square plastic arena (80 × 80 × 40 cm) in an evenly lit and sound-proof testing room. Rats were individually placed into the centre and allowed to explore the arena for 30 min while their behaviour was recorded. The experimental arena was cleaned with 70% ethanol after each subject. Arena was virtually divided into a 5 × 5 grid of identical squares; 16 squares were located next to the walls (peripheral zone) and 9 squares were in the centre (central zone). Software EthoVision XT 14.0 software (Noldus, Netherlands) was used to capture raw data used in the calculation of the following dependent variables: trajectory length (cm; corrected for deviations of <3 cm) and its temporal dynamics in 5 min intervals; thigmotaxis (∑fperipheral zones/∑fall zones, f = frequency of appearance in the zone) reflecting the probability of appearance in the peripheral zone; Tcenter reflecting time spent in the centre of the arena (∑timecentral zones).
(§1) Locomotor activity in OFT (mean trajectory length across 5 min blocks) was evaluated using a 2 × 4 × 6 mixed factorial ANOVA with temporal testing onset (15 or 60 min) and drug treatment (2C-B-Fly-NBOMe 0.2, 1, or 5 mg/kg or ctrl) as between-subjects factors, and time blocks (6 × 5 min intervals) as a within-subjects factor. Spatial distribution of animal movement in OFT (thigmotaxis and T center) and PPI parameters (habituation, ASR and % of PPI) were each analysed using a 2 × 4 factorial ANOVA with temporal testing onset (15 or 60 min) and drug treatment (2C-B-Fly-NBOMe 0.2, 1, or 5 mg/kg or ctrl) as between-subjects factors.

[3] = PET; ref Ettrup et al., 2011; cited from earlier work
[4] = ref Richter et al. (2020); cited from earlier work
[5] = test system: 5-HT2A receptor; design: method as in Ettrup et al., 2011; conditions: among the examined NBOMes; ref Ettrup et al., 2011; cited from earlier work
[6] = test system: male Wistar rats; assay: Observation of 5-HT2A-related behaviour (head-twitch response, wet dog shakes); conditions: rat, in vivo
[7] = three different systems; ref Nykodemová et al., 2021; cited from earlier work
[8] = test system: male Wistar rats; assay: Prepulse inhibition (PPI) of acoustic startle response (ASR); format: in vivo
Experimental: The effect of 2C-B-Fly-NBOMe on sensorimotor gating was evaluated by a PPI of ASR test. Two identical startle chambers (SR-LAB, San Diego Instruments, California) were used, each containing a sound-proof, evenly lit and ventilated enclosure with a plexiglass stabilimeter (8.7 cm inner diameter), a piezoelectric accelerometer for detecting amplitudes of the ASR, and a high-frequency loudspeaker producing acoustic stimuli. Amplitudes of the ASR were digitized for subsequent analysis. The experimental design was based on our previous studies ([Štefková et al., 2017]; [Šíchová et al., 2018]). Two days before the experiment, the animals were habituated to the startle chambers with a background white noise (75 dB) for 5 min, followed by six presentations of pulse-alone stimuli (125 dB, 40 ms) with pseudorandomized inter-stimulus intervals. […]
Habituation was calculated by the percentage reduction in the ASR from the initial six baseline trials to the final six trials. PPI was calculated as [100 - (mean response for the prepulse - pulse trial/startle response for the single pulse trials) × 100]. […]
as §1

[9] = test system: 5-HT2A receptor; design: method as in Ettrup et al., 2011; conditions: GF-62 cells; among the examined NBOMes; ref Ettrup et al., 2011; cited from earlier work
[10] = 0.2, 1 and 5 mg/kg s. c., 15 and 60 min onset

SMILES: COc1ccccc1CNCCc1c2c(c(Br)c3c1OCC3)OCC2 [2C-B-Fly-NBOMe]
- trend of hypothermic reaction in group-housed animals ([1]; animals housed in groups): not in animals housed in groups
- hypothermic trend in individually housed animals ([1]; individually housed, first 90 min after application): the statistical difference was not significant
- effect of the treatment on body temperature (ANOVA) ([1]; p < 0.05): significant effect of the treatment
- Tcentre (time spent in the centre of the arena) [2, 10]: not affected
- thigmotaxis [2, 10]: not affected
- total trajectory length (locomotor activity) versus ctrl ([2]; 0.2, 1 and 5 mg/kg s. c., 15 and 60 min testing onset): dose-dependently reduced; also recorded: significant differences in all remaining groups versus ctrl except for 0.2 mg/kg of 2C-B-Fly-NBOMe in the 60 min onset
- Locomotor habituation ([2]; 0.2, 1 and 5 mg/kg s. c., both testing onsets): dose-dependently disturbed
- locomotion in 5 min time blocks versus ctrl ([2]; 15 min onset, 1 mg/kg s. c., p < 0.05): persisted until the fourth block
- locomotion in 5 min time blocks versus ctrl ([2]; 15 min onset, 5 mg/kg s. c., p < 0.05–0.001): significant hypolocomotion during the whole session
- locomotion in 5 min time blocks versus ctrl ([2]; 15 min onset, all the doses (0.2, 1, 5 mg/kg s. c.), p < 0.001): significantly decreased activity in the first three blocks
- locomotion in 5 min time blocks versus ctrl ([2]; 60 min onset, 1 mg/kg and 5 mg/kg groups, p < 0.01–0.001): persisted to the fifth block
- locomotion in 5 min time blocks versus ctrl ([2]; 60 min onset, all groups (0.2, 1, 5 mg/kg s. c.), p < 0.05–0.001): reduced activity in the first two blocks
- cortical uptake [3]: highest cortical uptake among the examined NBOMes
- penetration of brain tissue [3]: readily penetrated the brain tissue
- number of phase I metabolites [4]: five
- number of phase II metabolites [4]: one
- intrinsic activity [5]: the lowest
- behaviour typical of 5-HT2A receptor activation (head-twitch response or wet dog shakes) [6]: did not demonstrate any behaviour
- number of phase I metabolites [7]: thirty-five
- number of phase II metabolites [7]: nine
- percentage of PPI ([8]; 0.2, 1 and 5 mg/kg s. c., ANOVA treatment factor): not by treatment
- Habituation of ASR ([8]; 0.2, 1 and 5 mg/kg s. c., p < 0.05): significantly affected by drug treatment
- ASR versus ctrl ([8]; all doses (0.2, 1, 5 mg/kg s. c.), 15 and 60 min onset, p < 0.001): strongly disrupted; also recorded: significantly diminished ASR; also recorded: strongly attenuates ASR
- binding affinity to 5-HT2A receptor [9]: highest binding affinity
